# According to patent publication US20040039211A1, “Tetrapyrroles” (DUKE UNIVERSITY AND NATIONAL JEWISH MEDICAL AND RESEARCH …, priority 2000, published 2004):
# pIC50: −log10 of the molar value.
# Experiments:
# [1] = Stability in the presence of excess EDTA (uv/vis); format: physicochemical
# Protocol: Uv/vis Spectroscopy. […] Also the effects of EDTA, H2O2, and the methanol/water ratio on the stability of the manganese(III) complex were examined. […] […] 79:699 (1960)). When needed the biliverdin and biliverdin dimethylester as well as their reduced forms bilirubin and bilirubin dimethylester were studied. […] In a week, at 25° C., only 14% of the complex dissociated. When the water content was increased to 43%, half the complex dissociated in a week.
# [2] = Degradation by H2O2 followed by uv/vis spectroscopy; format: physicochemical
# From the text: Uv/vis Spectroscopy. […] Also the effects of EDTA, H2O2, and the methanol/water ratio on the stability of the manganese(III) complex were examined. […] 79:699 (1960)). When needed the biliverdin and biliverdin dimethylester as well as their reduced forms bilirubin and bilirubin dimethylester were studied. At μM concentrations, manganese(III) and iron(III) porphyrins are degraded by H2O2 in aqueous solution. pH 7.8 (Batinic-Haberle et al, Inorg. Chem. 38:4011 (1999), Everett et al, J. Trans. Faraday Soc. 49:410 (1953)). […] The reaction was followed in 90/10, v/v methanouaqueous solution at pH^* 7.9. […] The uv/vis spectroscopy indicated degradation via the reduction of biliverdin to bilirubin followed by loss of metal (Gray et al, J. Chem. Soc. 2276 (1961); Kuenzle et al, Biochem. J. 130:1147 (1972); […], Nature 899 (1962)). The interaction of biliverdin and bilirubin with H2O, was also followed in 0.05 M tris buffer, pH 7.8. As observed for its metal complex, biliverdin undergoes reduction by H2O2 via bilirubin. Under pseudo-first order conditions (6 mM to 60 mM H2O2, 60 μM biliverdin), the second-order rate constant was k=3×10^-3 M^-1 s^-1. Bilirubin is more resistant to H2O2 than biliverdin or its metal complex. The disappearance of bilirubin was followed at 435 nm (Gray et al, J. Chem. Soc. 2268 (1961)). Under conditions given above and at 60 mM H2O2, about 40% of the biliverdin and 14% of bilirubin was degraded within 4.4 hours, and about 14% of the complex was degraded inside 80 min.
# rat brain homogenates = assay: Lipid peroxidation of rat brain homogenates by iron/ascorbate (TBARS); format: biochemical; conditions: concentration that reduced lipid peroxidation by one-half
# Protocol: The ability of mimetics to inhibit lipid peroxidation can be assessed as described by Day et al, Free Rad. Biol. Med. 26:730 (1990). Iron and ascorbate can be used to initiate lipid peroxidation in tissue homogenates and the formation of thiobarbituric acid reactive species (T BARS) measured.
# Two metallotetrapyrroles were tested for antioxidant activity, in vitro. In particular, the compounds were assayed for their ability to dismutate superoxide in the indirect method that utilizes xanthine and xanthine oxidase to generate superoxide and cytochrome c reduction as indicator of superoxide flux. […] The compounds were also assayed for their ability to prevent lipid peroxidation of rat brain homogenates by iron and ascorbate. The mixture of iron and ascorbate generates reactive oxygen species that oxidize biological lipids and these oxidized lipids can be detected as species that react with thiobarbituric acid (TBARS). Both compounds could inhibit the formation of TBARS and this ability correlated with their superoxide dismutase (SOD) activity (Table 5).
# b) Lipid peroxidation was initiated in rat brain homogenates with iron/ascorbate and the IC50 is the concentration of compound that reduced lipid peroxidation by one-half.
substance,measurement,setting,value
Manganese(III) Biliverdin IX Dimethylester [{Mn^IIIBVDME}2],stability in the presence of EDTA,"[1]; 1 μM, 900-fold excess EDTA (0.9 mM), 2-4 hours, 25° C., methanol/aqueous (90/10), 0.05 M tris, pH* 7.9",stable
same,stability in the presence of EDTA,"[1]; 20 μM, 900-fold excess of EDTA, pH 7.8",stable
same,fraction degraded by H2O2,"[2]; 60 mM H2O2, inside 80 min",about 14%
same,second-order rate constant k of H2O2 induced degradation,"[2]; 90/10 v/v methanol/aqueous, pH* 7.9, 6 mM to 120 mM H2O2, 15 and 30 μM complex",0.00064 M⁻¹ s⁻¹
same,pIC50,rat brain homogenates,6.52
